US6180651A, “Diarylmethylidenefuran derivatives, processes for their preparation and their uses in therapeutics” (Bristol-Myers Squibb, priority 1996, dated 2001)

Experiments:
carrageenin oedema = assay: anti-inflammatory activity, carrageenin oedema test; format: in vivo; conditions: rat, oral; dose which induces 50% decrease in the volume of the oedema; read-out: Anti-inflammatory activity ID50
Procedure: (§1) The anti-inflarnmatory activity of the compounds of the Examples was evaluated by the carrageenin oedema method and the analgesic activity was evaluated by the kaolin arthritis method.
Anti-inflammatory Activity:
The anti-inflammatory activity is evaluated in the rat by the carrageenin oedema test. The product is administered orally at a rate of 2.5 ml/100 g (n=6 animals per dose) 2 h 30 min after oral hyperhydration (2.5 m/100 g); one hour after administration of the product, the oedema is induced by the plantar subcutaneous injection of 2% aqueous carrageenin solution. The results are expressed as the ID50, the dose in mg/kg which induces 50% decrease in the volume of the oedema, calculated by linear regression using the maximum oedema volume obtained for each product tested.

kaolin arthritis = assay: analgesic activity, kaolin arthritis test; format: in vivo; conditions: rat, oral; dose which induces 50% decrease of the maximum quotation in the control batch; read-out: Analgesic activity DE50
Procedure: as §1
The analgesic activity is evaluated in the rat by the kaolin arthritis test. Thirty minutes after the intra-articular administration of 10% aqueous kaolin suspension, the product is administered orally at a rate of 1 ml/100 g (n=10 animals per dose). The results are expressed as DE50, the dose in mg/kg which induces 50% decrease of the maximum quotation in the control batch, calculated by linear regression.

COX-2 = molecular target: T1, COX-2 (Ovis aries, UniProt P79208); assay: inhibition of COX-2 enzymatic activity (PGE2 by EIA); format: biochemical, ewe; conditions: for IC50: purified enzyme from ewe placenta, arachidonic acid 4 μM, n=1 to 4 determinations; for Selectivity COX-1/COX-2 ratio: ratio of IC50 COX-1 / IC50 COX-2
T1 construct: purified enzyme from ewe placenta; from tissue; host or cells: ewe placenta (purified enzyme)
T1 sequence (P79208 17-603): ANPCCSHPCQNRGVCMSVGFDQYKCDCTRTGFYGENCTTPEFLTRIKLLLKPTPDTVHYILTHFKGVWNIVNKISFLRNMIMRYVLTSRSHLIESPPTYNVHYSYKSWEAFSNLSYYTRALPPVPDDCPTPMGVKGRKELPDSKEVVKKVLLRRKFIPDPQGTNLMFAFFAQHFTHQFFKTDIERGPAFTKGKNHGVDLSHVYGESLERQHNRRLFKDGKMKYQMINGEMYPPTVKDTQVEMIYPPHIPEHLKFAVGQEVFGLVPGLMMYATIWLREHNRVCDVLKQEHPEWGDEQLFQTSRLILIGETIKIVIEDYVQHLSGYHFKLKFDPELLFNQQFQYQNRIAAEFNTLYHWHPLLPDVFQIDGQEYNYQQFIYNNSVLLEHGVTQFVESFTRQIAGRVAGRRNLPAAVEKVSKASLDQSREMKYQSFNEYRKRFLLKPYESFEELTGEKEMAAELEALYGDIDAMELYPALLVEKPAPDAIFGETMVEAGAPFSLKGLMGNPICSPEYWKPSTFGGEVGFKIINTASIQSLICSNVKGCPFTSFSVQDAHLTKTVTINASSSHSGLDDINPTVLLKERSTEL
Procedure: (§2) Inhibition of the COX-1 and COX-2 Enzymatic Activities The test molecule is preincubated for 10 minutes at 25° C. with 2 U of COX-1 (purified enzyme from ram seminal vesicles) or 1 U of COX-2 (purified enzyme from ewe placenta). Arachidonic acid (6 μM for COX-1, 4 μM for COX-2) is added to the reaction medium and incubation is carried out for 5 minutes at 25° C. When incubation has ended, the enzymatic reaction is stopped by the addition of 1 N HCl and the PGE2 produced is determined by EIA. The results are expressed as IC50, the concentration in nM which corresponds to 50% inhibition of the maximal enzymatic activity on the COX-1 and COX-2 (n=1 to 4 determinations).

COX-1 = molecular target: T2, COX-1 (Ovis aries, UniProt P05979); assay: inhibition of COX-1 enzymatic activity (PGE2 by EIA); format: biochemical; conditions: purified enzyme from ram seminal vesicles; arachidonic acid 6 μM; n=1 to 4 determinations
T2 construct: purified enzyme from ram seminal vesicles; from tissue; host or cells: ram seminal vesicles (purified enzyme)
T2 sequence (P05979 25-600): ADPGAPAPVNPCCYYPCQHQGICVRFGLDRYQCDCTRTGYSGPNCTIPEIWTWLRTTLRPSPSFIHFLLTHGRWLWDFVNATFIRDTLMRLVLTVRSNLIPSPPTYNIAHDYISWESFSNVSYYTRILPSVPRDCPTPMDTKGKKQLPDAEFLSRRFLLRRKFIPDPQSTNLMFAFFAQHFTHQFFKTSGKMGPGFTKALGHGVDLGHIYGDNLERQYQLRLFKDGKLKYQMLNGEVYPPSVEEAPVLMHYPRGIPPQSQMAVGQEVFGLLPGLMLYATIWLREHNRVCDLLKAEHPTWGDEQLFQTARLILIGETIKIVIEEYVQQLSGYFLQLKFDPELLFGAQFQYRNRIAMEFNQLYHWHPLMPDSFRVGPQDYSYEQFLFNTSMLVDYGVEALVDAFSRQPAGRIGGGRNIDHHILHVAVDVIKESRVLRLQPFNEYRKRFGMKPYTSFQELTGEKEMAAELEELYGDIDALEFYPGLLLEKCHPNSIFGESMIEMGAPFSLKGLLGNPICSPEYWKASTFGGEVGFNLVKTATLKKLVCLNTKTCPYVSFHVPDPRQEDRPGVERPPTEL
Procedure: as §2

[1] = gastric tolerance, ulceration index; design: species or system Charles River rats of the CD strain; conditions: rat, in vivo, po
Procedure: The gastric tolerance is studied on Charles River rats of the CD strain weighing between 110 and 150 g. The animals are placed on a water diet 24 h prior to oral administration of the product or the vehicle only at a rate of 1 ml/100 g (n=6 animals per dose). Six hours after administration,the animals are sacrificed and the stomachs are removed and opened along the large curvature. The number of haemorrhagic puncta and sulci per stomach, identified macroscopically, makes it possible to establish an ulceration index (0: no lesion, 1: 1 to 2 lesions, 2: 3 to 4 lesions, 3: 5 to 8 lesions, 4: 9 to 16 lesions, 5: more than 17 lesions) and to estimate the 50% ulcerigenic dose (UD50 =dose inducing 4 to 5 lesions, expressed in mg/kg).

apc/min mice = assay: chemoprevention assay in apc/min mice (model of human familial adenomatous polyposis); format: in vivo; conditions: 1.8 mg/kg/day in the feed
Procedure: Chemoprevention Assays in Mice:
The test molecule is given in the feed to apc/min mice, a mouse model of human familial adenomatous polyposis, at 1.8 mg/kg/day for 240 days. The viability and the average tumor burden in animals receiving the test compound is compared to that in control animals.

| SMILES | ED50 (carrageenin oedema) [mg/kg] | ED50 (kaolin arthritis) [mg/kg] | IC50 (COX-2) [µM] | Selectivity COX-1/COX-2 ratio (COX-2) | IC50 (COX-1) [µM] | TD50 at 6 h [1] [mg/kg] | mice still alive (apc/min mice; 240 days, control 8/29) | average tumor burden (apc/min mice; 240 days, control 16.3 tumors) [tumors per mouse] | viability compared to control (apc/min mice; after 240 days) |
| --- | --- | --- | --- | --- | --- | --- | --- | --- | --- |
| CS(=O)(=O)c1ccc(/C(=C2\CCOC2=O)c2ccc(F)cc2)cc1 [4 (E isomer), (E)-3-[1-(4-fluorophenyl)-1-(4-methanesulphonylphenyl)methylidene]dihydrofuran-2-one] | 1.8 | 7.6 | 0.674 ± 0.046 | > 445 | > 300 | > 1000 |  |  |  |
| CS(=O)(=O)c1ccc(/C(=C2\CCOC2=O)c2ccc(Cl)cc2)cc1 [8 (Z isomer), (Z)-3-[1-(4-chlorophenyl)-1-(4-methanesulphonylphenyl)methylidene]dihydrofuran-2-one] | 3.7 | 2.1 | 0.182 ± 0.025 | 944 | 172 ± 22.2 | > 1000 | 17/29 | 11.9 | outliving their control counterparts |
| NS(=O)(=O)c1ccc(/C(=C2\CCOC2=O)c2ccc(Cl)cc2)cc1 [125 (Z isomer), (Z)-4-[(4-chlorophenyl)-(2-oxo-dihydro-furan-3-ylidene)-methyl]benzenesulphonamide] | 1.8 | 8.5 | 0.06 | 42 | 2.52 ± 1.31 | > 1000 |  |  |  |
| Cc1cc(/C(=C2/CCOC2=O)c2ccc(S(N)(=O)=O)cc2)ccc1F [135 (Z isomer), (Z)-4-[(4-fluoro-3-methylphenyl)-(2-oxo-dihydrofuran-3-ylidene)methyl]benzenesulphonamide] | 3.3 | 6.1 | 0.245 ± 0.076 | 80 | 19.7 |  |  |  |  |
| NS(=O)(=O)c1ccc(/C(=C2\CCOC2=O)c2ccc(F)c(Cl)c2)cc1 [143 (Z isomer), (Z)-4-[(3-chloro-4-fluorophenyl)-(2-oxo-dihydro-furan-3-ylidene)methyl]benzenesulphonamide] | 0.7 | 6.4 | 0.073 | 174 | 12.7 |  |  |  |  |
